Values quoted from earlier work in US7879906B2, “GABA analogs, compositions and methods for manufacturing thereof” (Anchen Laboratories, Inc., priority 2006, dated 2011).

Test system: mouse

O=C1CC2(CCCCC2)CN1 [gabapentin lactam]
toxicity (LD50, mouse): 300 mg/kg

NCC1(CC(=O)O)CCCCC1 [gabapentin]
toxicity (LD50, mouse): more than 8000 mg/kg
